These results are taken from patent US8188090B2, “Naphthylacetic acids” (Hoffman-La Roche Inc., priority 2008, dated 2012).

Test [1] has as its target T1, human CRTH2 (Homo sapiens, UniProt Q9Y5Y4).
T1 sequence (Q9Y5Y4 1-395): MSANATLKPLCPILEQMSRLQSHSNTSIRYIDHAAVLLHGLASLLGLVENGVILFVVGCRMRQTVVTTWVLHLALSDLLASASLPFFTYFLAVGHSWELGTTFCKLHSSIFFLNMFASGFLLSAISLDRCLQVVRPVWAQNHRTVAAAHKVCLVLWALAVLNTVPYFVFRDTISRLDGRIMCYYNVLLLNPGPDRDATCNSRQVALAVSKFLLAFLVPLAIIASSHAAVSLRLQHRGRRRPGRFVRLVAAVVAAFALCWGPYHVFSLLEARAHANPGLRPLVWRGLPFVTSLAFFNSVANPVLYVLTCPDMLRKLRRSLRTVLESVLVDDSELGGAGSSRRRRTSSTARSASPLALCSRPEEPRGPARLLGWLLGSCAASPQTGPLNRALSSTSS
In words: Human CRTH2 Receptor Binding Assay (whole cell, [3H]ramatroban). Also noted: expressed in transfected cells; host or cells: CHO-K1. Particulars: whole CHO-K1 cells stably expressing human CRTH2 and G-alpha16; 20 nM [3H]ramatroban; 1 hour, room temperature. From the text:
A whole cell receptor binding assay using [^3H]ramatroban as the competing radioactive ligand was employed to evaluate the compound binding activity to human CRTH2. The radioactive ligand [^3H]ramatroban was synthesized according to Sugimoto et. al. (Eur. J. Pharmacol. 524, 30-37, 2005) to a specific activity of 42 Ci/mmol.
A cell line stably expressing human CRTH2 was established by transfecting CHO-K1 cells with two mammalian expression vectors that harbored human CRTH2 and G-alpha16 cDNAs, respectively, using FuGene® 6 transfection reagent (from Roche). Stable clones expressing CRTH2 were selected by staining each clone with BM16 (BD Pharmingen™ from BD Biosciences, a division of Becton, Dickinson and Company), which is a rat monoclonal antibody to human CRTH2. The cells were maintained as monolayer cultures in Ham's F-12 medium containing 10% fetal bovine serum, 100 units/mL penicillin, 100 μg/mL streptomycin, 2 mM glutamine, 0.5 mg/mL G418 (geneticin) for CRTH2, and 0.2 mg/mL hygromycin-B (for G-alpha 16). For whole cell receptor binding assay, the monolayer cells were rinsed once with PBS (phosphate buffered saline), dissociated using ethylenediaminetetraacetate (Versene™ EDTA from Lonza Inc.), and suspended in PBS containing 10 mM MgCl2 and 0.06% BSA (bovine serum albumin) at 1.5×10^6 cells/mL.
The binding reactions (0.2 mL) were performed in 96-well plates at room temperature in PBS containing 1.5×10^5 cells, 10 mM MgCl2, 0.06% BSA, 20 nM [^3H]ramatroban, and test compound at various concentrations. After 1 hour of binding reactions, the cells were harvested on GF™/B filter microplates (microtiter plates with embedded glass fiber from PerkinElmer, Inc.) and washed 5 times with PBS using a Filtermate™ Harvester (a cell harvester that harvests and washes cells from microplates from PerkinElmer, Inc.). The radioactivities bound to the cells were determined using a microplate scintillation counter (TopCount® NXT, from PerkinElmer, Inc.) after adding 50 μL of Microscint™ 20 scintillation fluid (from PerkinElmer, Inc.) to each well of the filter plates. The radioactivity from non-specific binding was determined by replacing compound with 10 μM of 15(R)-15-methyl PGD2 (from Cayman Chemical Company) in the reaction mixtures. The radioactivity bound to the cells in the absence of compound (total binding) was determined by replacing compound with 0.25% of DMSO (dimethyl sulfoxide) in the reaction mixture. Specific binding data were obtained by subtracting the radioactivity of non-specific binding from each binding data.
The IC50 value is defined as the concentration of the tested compound that is required for 50% inhibition of total specific binding. In order to calculate the IC50 value, the percent inhibition data were determined for 7 concentrations for each compound. The percent inhibition for a compound at each concentration was calculated according to the following formula, [1-(specific binding in the presence of compound)/(total specific binding)]×100. The IC50 value was then obtained by fitting the percent inhibition data to a sigmoidal dose-response (4 parameter logistic) model in the XLfit® software Excel add-in program [from ID Business Solutions Ltd., model 205, where F(x)=(A+(B−A)/(1+((C/x)^D)))].

In test [2] the target is T1, human CRTH2. The experiment in a line: Calcium Flux Assay Using Fluorometric Imaging Plate Reader (FLIPR). As to conditions: CHO-K1 cells transfected with G-alpha 16 and human CRTH2 receptor; inhibition of ligand (DK-PGD2) induced Ca2+ flux. Also noted: expressed in transfected cells; host or cells: CHO-K1 (previously transfected with G-alpha 16). The class given is cell-based. As for the experimental part: Calcium Flux Assay Using Fluorometric Imaging Plate Reader Cell Culture Conditions:
CHO-K1 cells previously transfected with G-alpha 16 were subsequently transfected with the human CRTH2 receptor and the neomycin resistance gene. Following selection in 800 μg/mL G418 (geneticin), individual clones were assayed for their receptor expression based on staining with an anti human CRTH2 IgG, followed by assaying for their response to 13,14-dihydro-15-keto Prostaglandin D2 (DK-PDG2) (ligand) in the Ca^2+Flux assay. Positive clones were then cloned by limiting dilution cloning. The transfected cells were cultured in Ham's F-12 medium supplemented with 10% fetal bovine serum, 2 mM glutamine, 100 U/mL penicillin/100 μg/mL streptomycin, 200 μg/mL hygromycin B, and 800 μg/mL G418 (geneticin). Cells were harvested with trypsin-EDTA (trypsin-ethylenediaminetetraacetic acid) and counted using ViaCount® reagent (from Guava Technologies, Inc. which contains two DNA-binding dyes that enable the reagent user to distinguish between viable and non-viable cells). The cell suspension volume was adjusted to 2.5×10^5 cells/mL with complete growth media. Aliquots of 50 μL were dispensed into BD Falcon™ 384 well black/clear microplates (from BD Biosciences, a division of Becton, Dickinson and Company) and the microplates were placed in a 37° C. CO2 incubator overnight. The following day, the microplates were used in the assay.
Loading Buffer containing dye (from the FLIPR® Calcium 3 Assay Kit from Molecular Devices, a division of MDS Analytical Technologies and MDS Inc.) was prepared by dissolving the contents of one bottle into 200 mL Hank's Balanced Salt Solution containing 20 mM HEPES (4-(2-hydroxyethyl)-1-piperazineethanesulfonic acid) and 2.5 mM probenecid. Growth media was removed from the cell plates and 25 μL of Hank's Balanced Salt Solution (HBSS) containing 20 mM HEPES, 0.05% BSA and 2.5 mM probenecid was added to each well followed by 25 μL of diluted dye using a Multidrop dispenser. The plates were then incubated for 1 hour at 37° C.
During the incubation, test compound plates were prepared by adding 90 μL of HBSS/20 mM HEPES/0.005% BSA buffer to the 2 μL of serial diluted compounds. To prepare serial diluted compounds, 20 mM stocks of compounds were dissolved in 100% DMSO. The compound dilution plate was set up as follows: well #1 received 5 μL of compound plus 10 μL of DMSO. Wells 2-10 received 10 μL of DMSO. 5 μL was mixed and transferred from well #1 into well #2. 1:3 serial dilutions were continued out 10 steps. […]
After incubation, both the cell and “assay plate” plates were brought to the fluorometric imaging plate reader (FLIPR®) and 20 μL of the diluted compounds were transferred to the cell plates by the FLIPR®. […] During the assay, fluorescence readings were taken simultaneously from all 384 wells of the cell plate every 1.5 seconds. Five readings were taken to establish a stable baseline, then 20 μL of sample was rapidly (30 μL/sec) and simultaneously added to each well of the cell plate. The fluorescence was continuously monitored before, during and after sample addition for a total elapsed time of 100 seconds. Responses (increase in peak fluorescence) in each well following agonist addition were determined. The initial fluorescence reading from each well, prior to ligand stimulation, was used as a zero baseline value for the data from that well. The responses were expressed as % inhibition of the buffer control. […]
(Calcium flux is commonly read through the fluorescence of an indicator in the cells.)

pIC50: −log10 of the molar value.

The pIC50 is −log10 of the IC50, conventionally taken in molar units. For the molecule `Cc1c(CC(=O)O)cc2ccc(F)cc2c1C(=O)N1CCN(c2ccccc2C(F)(F)F)CC1` [Example 2-15, {6-Fluoro-3-methyl-4-[4-(2-trifluoromethyl-phenyl)-piperazine-1-carbonyl]-naphthalen-2-yl}-acetic acid], the figures for the negative-log IC50 (pIC50) at human CRTH2 [1] and at human CRTH2 [2] were 6.60 and less than 5.30, respectively. For `CC(=O)N1CCC(Oc2cc(CC(=O)O)cc3ccc(F)cc23)CC1` [Example 5-1, [4-(1-Acetyl-piperidin-4-yloxy)-6-fluoro-naphthalen-2-yl]-acetic acid], the values for the negative logarithm of the IC50 (pIC50) at human CRTH2 [1] and on human CRTH2 [2] were 6.79 and less than 5.30, respectively. On to `CCS(=O)(=O)N1CCC(Oc2cc(CC(=O)O)cc3ccc(F)cc23)CC1` [Example 4-2, [4-(1-Ethanesulfonyl-piperidin-4-yloxy)-6-fluoro-naphthalen-2-yl]-acetic acid], for which the negative logarithm of the IC50 (pIC50) on human CRTH2 [1] is 7.69; on human CRTH2 [2], less than 5.30. `CCc1ccccc1N1CCN(C(=O)c2c(C)c(CC(=O)O)cc3ccc(F)cc23)CC1` [Example 2-10, {4-[4-(2-Ethyl-phenyl)-piperazine-1-carbonyl]-6-fluoro-3-methyl-naphthalen-2-yl}-acetic acid]: the results for the negative logarithm of the IC50 (pIC50) at human CRTH2 [1] and at human CRTH2 [2] were 6.35 and less than 5.30, respectively. `O=C(O)Cc1cc(OC2CCN(S(=O)(=O)Cc3ccccc3)CC2)c2cc(F)ccc2c1` [Example 4-10, [6-Fluoro-4-(1-phenylmethanesulfonyl-piperidin-4-yloxy)-naphthalen-2-yl]-acetic acid] gave a negative-log IC50 (pIC50) on human CRTH2 [1] of 8.57.

For the molecule `O=C(O)Cc1cc(OC2CCN(S(=O)(=O)c3ccc(F)cc3)CC2)c2cc(F)ccc2c1` [Example 4-8, {6-Fluoro-4-[1-(4-fluoro-benzenesulfonyl)-piperidin-4-yloxy]-naphthalen-2-yl}-acetic acid], the pIC50 at human CRTH2 [1] is 8.62. As to `Cc1c(CC(=O)O)cc2ccc(F)cc2c1C(=O)N1CCN(c2cccc(Cl)c2)CC1` [Example 2-21, {4-[4-(3-Chloro-phenyl)-piperazine-1-carbonyl]-6-fluoro-3-methyl-naphthalen-2-yl}-acetic acid], the pIC50 on human CRTH2 [1] was 7.72. The same measure, in the same setting: the result for `Cc1c(CC(=O)O)cc2ccc(F)cc2c1C(=O)N1CCN(c2cc(C(F)(F)F)cc(C(F)(F)F)c2)CC1` [Example 2-11, {4-[4-(3,5-Bis-trifluoromethyl-phenyl)-piperazine-1-carbonyl]-6-fluoro-3-methyl-naphthalen-2-yl}-acetic acid] reads 6.70; that for `CS(=O)(=O)N1CCC(Oc2cc(CC(=O)O)cc3ccc(F)cc23)CC1` [Example 4-1, [6-Fluoro-4-(1-methanesulfonyl-piperidin-4-yloxy)-naphthalen-2-yl]-acetic acid], 8.03; that for `Cc1c(CC(=O)O)cc2ccc(F)cc2c1C(=O)N1CCN(c2ccccc2F)CC1` [Example 2-3, {6-Fluoro-4-[4-(2-fluoro-phenyl)-piperazine-1-carbonyl]-3-methyl-naphthalen-2-yl}-acetic acid], 6.82. `Cc1c(CC(=O)O)cc2ccc(F)cc2c1C(=O)N1CCN(c2cc(Cl)cc(Cl)c2)CC1` [Example 2-17, {4-[4-(3,5-Dichloro-phenyl)-piperazine-1-carbonyl]-6-fluoro-3-methyl-naphthalen-2-yl}-acetic acid] showed a negative logarithm of the IC50 (pIC50) on human CRTH2 [1] of 7.66. With `Cc1c(CC(=O)O)cc2ccc(F)cc2c1C(=O)N1CCN(c2c(Cl)cncc2Cl)CC1` [Example 2-23, {4-[4-(3,5-Dichloro-pyridin-4-yl)-piperazine-1-carbonyl]-6-fluoro-3-methyl-naphthalen-2-yl}-acetic acid], the pIC50 on human CRTH2 [1] was 7.20. The molecule `Cc1ccc(N2CCN(C(=O)c3c(C)c(CC(=O)O)cc4ccc(F)cc34)CC2)cc1` [Example 2-16, [6-Fluoro-3-methyl-4-(4-p-tolyl-piperazine-1-carbonyl)-naphthalen-2-yl]-acetic acid] had a pIC50 at human CRTH2 [1] of 7.57. In turn, `O=C(O)Cc1cc(C(=O)N2CCN(S(=O)(=O)c3ccccc3)CC2)c2cc(C(F)(F)F)ccc2c1` [Example 1-18, [4-(4-Benzenesulfonyl-piperazine-1-carbonyl)-6-trifluoromethyl-naphthalen-2-yl]-acetic acid] showed a pIC50 on human CRTH2 [1] of 8.22. For the molecule `COc1ccccc1N1CCN(C(=O)c2c(C)c(CC(=O)O)cc3ccc(F)cc23)CC1` [Example 2-8, {6-Fluoro-4-[4-(2-methoxy-phenyl)-piperazine-1-carbonyl]-3-methyl-naphthalen-2-yl}-acetic acid], the pIC50 on human CRTH2 [1] is 6.34; on human CRTH2 [2] it was less than 5.30. For `O=C(O)Cc1cc(OC2CCN(C(=O)Nc3ccc(F)cc3)CC2)c2cc(F)ccc2c1` [Example 6-4, {6-Fluoro-4-[1-(4-fluoro-phenylcarbamoyl)-piperidin-4-yloxy]-naphthalen-2-yl}-acetic acid], the pIC50 on human CRTH2 [1] is 8.30.
